Measurements: patent US20100138935A1, “Detection of cellular stress” (priority 2004, published 2010)

Key:
HOZ mice [1] = assay: BUN as a marker of nephrotoxicity in HOZ mice; assay type: in vivo, mouse; set-up: BUN: unit not given here
Method: (§1) Terminal blood samples were taken by cardiac puncture into lithium/heparin-coated tubes for preparation of plasma. Tissues, as defined in each protocol, were routinely dissected as follows:
(§2) Following removal into tubes suitable for plasma preparation, venous blood samples were mixed on a roller for 10 minutes then cooled on ice. Red blood cells were removed by centrifugation at 2,000 rpm for 10 minutes at 8-10° C. The supernatant (plasma) was transferred to a second tube and stored at −70° C. until required for analysis.
(§3) Plasma samples were analysed for appropriate analytes on a Roche autoanalyser (Cobas Integra 400) according to the manufacturer's instructions. The routine markers measured included: (for liver damage) plasma alanine aminotransferase (ALT), aspartate aminotransferase (AST) and alkaline phosphatase (ALP) and (for kidney damage) plasma creatinine and blood urea nitrogen (BUN).
The increase in BUN was 6-fold at 8 hours and 44-fold after 24 hours.

HOZ mice [2] = assay: Histopathology (H&E) of HOZ mouse liver and kidney; assay type: in vivo; conditions: 10 mg/kg i.p. in saline, 24 hours
Method: Two further slices (˜2 mm thickness) were placed in 10% neutral buffered formalin (10% NBF) overnight then processed, sectioned and stained with haematoxylin and eosin (H&E).
Initially, one HOZ mouse was given 10 mg/kg body weight cadmium chloride i.p. One control animal received the vehicle solution, isotonic saline, i.p. and an untreated animal was used as a second control. The animals were killed 24 hours after dosing and liver, kidney and brain were collected for H&E staining and lacZ histology.
Sections of HOZ mouse liver and kidney were prepared and stained according to standard procedures (H&E). (a, b) Naive control; (c, d) Saline treated; (e, f) Cadmium chloride treated (10 mg/kg i.p. in saline). All images in FIG. 5 are of H&E stained sections: (a, c and e) are of liver; b, d and f are of kidney (original magnification ×100).

HOZ mice [3] = assay: Plasma AST as a marker of hepatotoxicity in HOZ mice; assay type: in vivo, mouse
Method: as §1, §2, §3
Two plasma enzyme markers, ALT and AST, were used as markers of hepatotoxicity in HOZ mice treated with cadmium chloride or sodium arsenite. […]

HOZ mice [4] = assay: Plasma ALT as a marker of hepatotoxicity in HOZ mice; assay type: in vivo, mouse
Method: as §1, §2, §3
Two plasma enzyme markers, ALT and AST, were used as markers of hepatotoxicity in HOZ mice treated with cadmium chloride or sodium arsenite. The results of this analysis for HOZ mice treated with 10 mg/kg cadmium chloride are shown in Table 1 and for HOZ mice treated with 2-8 mg/kg cadmium chloride or 13 mg/kg sodium arsenite in Tables 2 and 3.

[5] = female, 8 mg/kg, after 24 hours
[6] = HOZ mouse, 10 mg/kg i.p., 24 hours
[7] = male, 8 mg/kg, 24 hours after treatment

Which results are given for `[Cl][Cd][Cl]` [Cadmium Chloride, cadmium chloride]?
BUN (HOZ mice [1]; female, 1 mg/kg, 8 hours): 5.10; BUN (HOZ mice [1]; female, 1 mg/kg, 24 hours): 4.36; BUN (HOZ mice [1]; female, 2 mg/kg, 8 hours): 3.33; BUN (HOZ mice [1]; female, 2 mg/kg, 24 hours): 2.85; BUN (HOZ mice [1]; female, 4 mg/kg, 8 hours): 4.77; BUN (HOZ mice [1]; female, 4 mg/kg, 24 hours): 3.66; nephrotoxicity as measured by BUN (HOZ mice [1]; female, 8 mg/kg): mild nephrotoxicity; BUN (HOZ mice [1]; female, 8 mg/kg, 8 hours): 22.86; BUN (HOZ mice [1]; female, 8 mg/kg, 24 hours): 98.16; increase in BUN (HOZ mice [1]; [5]): 44 fold; increase in BUN (HOZ mice [1]; female, 8 mg/kg, at 8 hours): 6 fold; nephrotoxicity as measured by BUN (HOZ mice [1]; male mice): No nephrotoxicity; BUN (HOZ mice [1]; male, 1 mg/kg, 8 hours): 4.54; BUN (HOZ mice [1]; male, 1 mg/kg, 24 hours): 5.27; BUN (HOZ mice [1]; male, 2 mg/kg, 8 hours): 4.24; BUN (HOZ mice [1]; male, 2 mg/kg, 24 hours): 5.10; BUN (HOZ mice [1]; male, 4 mg/kg, 8 hours): 3.87; BUN (HOZ mice [1]; male, 4 mg/kg, 24 hours): 4.11; BUN (HOZ mice [1]; male, 8 mg/kg, 8 hours): 3.84; BUN (HOZ mice [1]; male, 8 mg/kg, 24 hours): 4.85; kidney histology (H&E) (HOZ mice [2]): occasional necrotic proximal convoluted tubules (PCTs); liver histology (H&E) (HOZ mice [2]): acute toxicity manifesting as hepatocyte vacuolation and areas of necrosis associated with deposits of erythrocytes; AST (HOZ mice [3]; [6]): 4643.1 U/L; Plasma AST (HOZ mice [3]; female, 1 mg/kg, 8 hours): 87.6 u/L; Plasma AST (HOZ mice [3]; female, 1 mg/kg, 24 hours): 87.5 u/L; Plasma AST (HOZ mice [3]; female, 2 mg/kg, 8 hours): 80.4 u/L; Plasma AST (HOZ mice [3]; female, 2 mg/kg, 24 hours): 104.7 u/L; Plasma AST (HOZ mice [3]; female, 4 mg/kg, 8 hours): 108.5 u/L; Plasma AST (HOZ mice [3]; female, 4 mg/kg, 24 hours): 89.1 u/L; increase in plasma AST (HOZ mice [3]; female, 4 mg/kg, at either time point (8, 24 hours)): no increase in plasma AST was observed; Plasma AST (HOZ mice [3]; female, 8 mg/kg, 8 hours): 13425.6 u/L; Plasma AST (HOZ mice [3]; female, 8 mg/kg, 24 hours): 8097.6 u/L; increase in plasma AST (HOZ mice [3]; female, 8 mg/kg, after 8 hours): 237 fold; increase in plasma AST (HOZ mice [3]; [5]): 97 fold; Plasma AST (HOZ mice [3]; male, 1 mg/kg, 8 hours): 100.2 u/L; Plasma AST (HOZ mice [3]; male, 1 mg/kg, 24 hours): 63.1 u/L; Plasma AST (HOZ mice [3]; male, 2 mg/kg, 8 hours): 66.4 u/L; Plasma AST (HOZ mice [3]; male, 2 mg/kg, 24 hours): 56.4 u/L; Plasma AST (HOZ mice [3]; male, 4 mg/kg, 8 hours): 132.3 u/L; Plasma AST (HOZ mice [3]; male, 4 mg/kg, 24 hours): 123.0 u/L; Plasma AST (HOZ mice [3]; male, 8 mg/kg, 8 hours): 92.4 u/L; Plasma AST (HOZ mice [3]; male, 8 mg/kg, 24 hours): 353.8 u/L; increase in AST (HOZ mice [3]; [7]): 3.8 fold; ALT (HOZ mice [4]; [6]): 1834.8 U/L; Plasma ALT (HOZ mice [4]; female, 1 mg/kg, 8 hours): 33.3 u/L; Plasma ALT (HOZ mice [4]; female, 1 mg/kg, 24 hours): 28.2 u/L; Plasma ALT (HOZ mice [4]; female, 2 mg/kg, 8 hours): 22.8 u/L; Plasma ALT (HOZ mice [4]; female, 2 mg/kg, 24 hours): 26.1 u/L; Plasma ALT (HOZ mice [4]; female, 4 mg/kg, 8 hours): 55.6 u/L; Plasma ALT (HOZ mice [4]; female, 4 mg/kg, 24 hours): 23.7 u/L; increase in plasma ALT (HOZ mice [4]; female, 4 mg/kg, after 8 hours): 2.4 fold; increase in ALT (HOZ mice [4]; female, 4 mg/kg, second statement, printed as after 8 hours): ≤ 2 fold; Plasma ALT (HOZ mice [4]; female, 8 mg/kg, 8 hours): 3930.6 u/L; Plasma ALT (HOZ mice [4]; female, 8 mg/kg, 24 hours): 7010.4 u/L; increase in plasma ALT (HOZ mice [4]; female, 8 mg/kg, after 8 hours): 170 fold; increase in plasma ALT (HOZ mice [4]; [5]): 275 fold; Plasma ALT (HOZ mice [4]; male, 1 mg/kg, 8 hours): 70.3 u/L; Plasma ALT (HOZ mice [4]; male, 1 mg/kg, 24 hours): 33.1 u/L; Plasma ALT (HOZ mice [4]; male, 2 mg/kg, 8 hours): 21.7 u/L; Plasma ALT (HOZ mice [4]; male, 2 mg/kg, 24 hours): 19.4 u/L; Plasma ALT (HOZ mice [4]; male, 4 mg/kg, 8 hours): 50.4 u/L; Plasma ALT (HOZ mice [4]; male, 4 mg/kg, 24 hours): 74.7 u/L; Plasma ALT (HOZ mice [4]; male, 8 mg/kg, 8 hours): 50.1 u/L; Plasma ALT (HOZ mice [4]; male, 8 mg/kg, 24 hours): 306.3 u/L; increase in ALT (HOZ mice [4]; [7]): 7.9 fold; increase in ALT and AST (HOZ mice [4]; male, all other doses and time points): ≤ 2 fold
